For 16 compounds, EC50 and IC50 results are on record in US10316017B2, “COT modulators and methods of use thereof” (Gilead Sciences, Inc., priority 2015, dated 2019).

Experiment [1] relates to TNFα production in LPS-stimulated human monocytes. In words: Cot Monocyte TNFα Cell Based Assay. The conditions noted are these: Homo sapiens, Monocyte, LPS-stimulated human monocytes, TNFα TR-FRET; read-out: EC50 TNF. A digest of the protocol:
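TR-FRET read-out of total secreted TNFα, normalized as % control (unstimulated = 0%, LPS-stimulated = 100%). Cells (5,000/well) were exposed to compound 1 h at 37 °C, then to 50 pg/ml LPS for a further 4 h.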
On the technique in general: In TR-FRET formats the signal depends on donor and acceptor labels being close together.

Experiment [2] has as its target T1, human Cot catalytic domain (30-397 amino acids) (Homo sapiens, UniProt P41279).
T1 construct: Purified recombinant human Cot catalytic domain (30-397 amino acids) was purchased from Cama Biosciences; purchased Cama Biosciences (so in the source)
In words: High Throughput Cot Biochemical Assay (KinEASE TR-FRET). The conditions noted are these: Cot KinEASE TR-FRET, 400 μM ATP; read-out: IC50 HTRF. A digest of the protocol:
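TR-FRET readout: Eu-labeled phospho-specific antibody binds XL665-tagged STK3 peptide after phosphorylation by Cot (aa 30-397, 5 nM). Conditions: 400 μM ATP, 1 μM peptide, MOPS pH 7.0 buffer with MgOAc, DTT, BSA, NP-40, glycerol; 0.1% DMSO.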

Molecules are shown by their SMILES. Some results are limits rather than exact numbers.

T1 sequence (P41279 30-397): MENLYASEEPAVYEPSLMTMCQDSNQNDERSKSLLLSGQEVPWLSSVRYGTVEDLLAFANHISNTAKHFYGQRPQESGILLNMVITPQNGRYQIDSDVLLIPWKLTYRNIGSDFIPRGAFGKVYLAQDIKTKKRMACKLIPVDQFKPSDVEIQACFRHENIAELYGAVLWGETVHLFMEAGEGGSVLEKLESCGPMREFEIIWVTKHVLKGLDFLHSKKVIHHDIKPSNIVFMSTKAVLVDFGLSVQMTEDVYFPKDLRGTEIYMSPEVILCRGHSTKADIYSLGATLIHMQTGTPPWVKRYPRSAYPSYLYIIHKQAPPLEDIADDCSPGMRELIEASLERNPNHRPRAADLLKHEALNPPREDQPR

As usually defined, the EC50 is the concentration that produces a half-maximal response. The term IC50 denotes the concentration that gives 50% inhibition. Turning to `[2H]c1c([C@@]([2H])(Nc2cc(Cl)c3ncc(C#N)c(NCC(C)(C)C)c3c2)c2c(F)cccc2Cl)nnn1C1(C)CC1` [Example 1046, (S)-8-chloro-6-(((2-chloro-6-fluorophenyl)(1-(1-methylcyclopropyl)-1H-1,2,3-triazol-4-yl-5-d)methyl-d)amino)-4-(neopentylamino)quinoline-3-carbonitrile], the EC50 in experiment [1] was at least 1000 nM. In addition, in experiment [2], the IC50 worked out at 142 nM.
For `[2H][C@@](Nc1cc(Cl)c2ncc(C#N)c(NCC(C)(C)C)c2c1)(c1cn(C2(C)CC2)nn1)c1c(F)cccc1Cl` [Example 1047, (S)-8-chloro-6-(((2-chloro-6-fluorophenyl)(1-(1-methylcyclopropyl)-1H-1,2,3-triazol-4-yl)methyl-d)amino)-4-(neopentylamino)quinoline-3-carbonitrile], in that order: at least 1000 nM and 101 nM.
For `[2H]c1c([C@@]([2H])(Nc2cc(C#N)c3ncc(C#N)c(NCC(C)(C)C)c3c2)c2c(F)cccc2Cl)nnn1C1(C)CC1` [Example 1048, (S)-6-(((2-chloro-6-fluorophenyl)(1-(1-methylcyclopropyl)-1H-1,2,3-triazol-4-yl-5-d)methyl-d)amino)-4-(neopentylamino)quinoline-3,8-dicarbonitrile], in that order: 637 nM and 33 nM.
The like results for `Cc1c([C@H](Nc2cc(Cl)c3ncc(C#N)c(NCC(C)(C)C)c3c2)c2cn(C3(C(F)F)CC3)nn2)cccc1-n1cncn1` [Example 1049, (S)-8-chloro-6-(((1-(1-(difluoromethyl)cyclopropyl)-1H-1,2,3-triazol-4-yl)(2-methyl-3-(1H-1,2,4-triazol-1-yl)phenyl)methyl)amino)-4-(neopentylamino)quinoline-3-carbonitrile] were, in that order, 35 nM and 2 nM.
Turning to `Cc1c(-c2ncco2)cccc1[C@H](Nc1cc(Cl)c2ncc(C#N)c(NCC(C)(C)C)c2c1)c1cn(C2(C(F)(F)F)CC2)nn1` [Example 1050, (S)-8-chloro-6-(((2-methyl-3-(oxazol-2-yl)phenyl)(1-(1-(trifluoromethyl)cyclopropyl)-1H-1,2,3-triazol-4-yl)methyl)amino)-4-(neopentylamino)quinoline-3-carbonitrile], the EC50 in experiment [1] came out at 202 nM. The half-maximal inhibitory concentration (IC50) in experiment [2] came out at 7 nM.
For `Cc1c(-c2ncco2)cccc1[C@H](Nc1cc(Cl)c2ncc(C#N)c(NCC(C)(C)C)c2c1)c1cn(C2(C(F)F)CC2)nn1` [Example 1051, (S)-8-chloro-6-(((1-(1-(difluoromethyl)cyclopropyl)-1H-1,2,3-triazol-4-yl)(2-methyl-3-(oxazol-2-yl)phenyl)methyl)amino)-4-(neopentylamino)quinoline-3-carbonitrile], in that order: 163 nM and 4 nM.
Regarding `CC(C)(C)CNc1c(C#N)cnc2c(Br)cc(N[C@H](c3cn(Cc4c(F)cccc4F)nn3)c3ccccc3Cl)cc12` [Example 1052, (S)-8-bromo-6-(((2-chlorophenyl)(1-(2,6-difluorobenzyl)-1H-1,2,3-triazol-4-yl)methyl)amino)-4-(neopentylamino)quinoline-3-carbonitrile], the EC50 in experiment [1] was at least 1000 nM. The half-maximal inhibitory concentration (IC50) in experiment [2] was determined as 189 nM.
The like results for `CC(C)(C)CNc1c(C#N)cnc2c(C#N)cc(N[C@H](c3cn(Cc4c(F)cccc4F)nn3)c3ccccc3Cl)cc12` [Example 1053, (S)-6-(((2-chlorophenyl)(1-(2,6-difluorobenzyl)-1H-1,2,3-triazol-4-yl)methyl)amino)-4-(neopentylamino)quinoline-3,8-dicarbonitrile] were, in that order, 200 nM and 26 nM.
The like results for `Cc1c([C@H](Nc2cc(C#N)c3ncc(C#N)c(NCC(C)(C)C)c3c2)c2cn(C3(C(F)F)CC3)nn2)cccc1-n1cncn1` [Example 1054, (S)-6-(((1-(1-(difluoromethyl)cyclopropyl)-1H-1,2,3-triazol-4-yl)(2-methyl-3-(1H-1,2,4-triazol-1-yl)phenyl)methyl)amino)-4-(neopentylamino)quinoline-3,8-dicarbonitrile] were, in that order, 81 nM and 1 nM.
With `Cc1c(-c2ncco2)cccc1[C@H](Nc1cc(C#N)c2ncc(C#N)c(NCC(C)(C)C)c2c1)c1cn(C2(C(F)(F)F)CC2)nn1` [Example 1055, (S)-6-(((2-methyl-3-(oxazol-2-yl)phenyl)(1-(1-(trifluoromethyl)cyclopropyl)-1H-1,2,3-triazo1-4-yl)methyl)amino)-4-(neopentylamino)quinoline-3,8-dicarbonitrile], the EC50 in experiment [1] came to 100 nM. For the same compound, the IC50 in experiment [2] is 3 nM.
Take `Cc1c(-c2ncco2)cccc1[C@H](Nc1cc(C#N)c2ncc(C#N)c(NCC(C)(C)C)c2c1)c1cn(C2(C(F)F)CC2)nn1` [Example 1056, (S)-6-(((1-(1-(difluoromethyl)cyclopropyl)-1H-1,2,3-triazol-4-yl)(2-methyl-3-(oxazol-2-yl)phenyl)methyl)amino)-4-(neopentylamino)quinoline-3,8-dicarbonitrile]: in experiment [1], the EC50 was 63 nM. The concentration for half-maximal inhibition (IC50) in experiment [2] was 2 nM.
`Cc1c([C@H](Nc2cc(Cl)c3ncc(C#N)c(NCC(C)(C)C)c3c2)c2cn(C3(C(F)(F)F)CC3)nn2)cccc1-n1cnnn1` [Example 1057, (S)-8-chloro-6-(((2-methyl-3-(1H-tetrazol-1-yl)phenyl)(1-(1-(trifluoromethyl)cyclopropyl)-1H-1,2,3-triazol-4-yl)methyl)amino)-4-(neopentylamino)quinoline-3-carbonitrile]: the EC50 in experiment [1] is 73 nM. The IC50 in experiment [2] came to 4 nM.
In the case of `CC(C)(C)CNc1c(C#N)cnc2c(Cl)cc(N[C@@H](c3ccccc3)c3cn(C4(C(F)(F)F)CC4)nn3)cc12` [Example 1059, (S)-8-chloro-4-(neopentylamino)-6-((phenyl(1-(1-(trifluoromethyl)cyclopropyl)-1H-1,2,3-triazol-4-yl)methyl)amino)quinoline-3-carbonitrile], the 50% effective concentration (EC50) in experiment [1] came to 553 nM. For the same compound, the IC50 in experiment [2] came out at 75 nM.
The like results for `Cc1ccccc1[C@H](Nc1cc(Cl)c2ncc(C#N)c(NCC(C)(C)C)c2c1)c1cn(C2(C(F)F)CC2)nn1` [Example 1060, (S)-8-chloro-6-(((1-(1-(difluoromethyl)cyclopropyl)-1H-1,2,3-triazol-4-yl)(o-tolyl)methyl)amino)-4-(neopentylamino)quinoline-3-carbonitrile] were, in that order, 311 nM and 33 nM.
The like results for `Cc1ccccc1[C@H](Nc1cc(Cl)c2ncc(C#N)c(NCC(C)(C)C)c2c1)c1cn(C2(C(F)(F)F)CC2)nn1` [Example 1061, (S)-8-chloro-4-(neopentylamino)-6-((o-tolyl(1-(1-(trifluoromethyl)cyclopropyl)-1H-1,2,3-triazol-4-yl)methyl)amino)quinoline-3-carbonitrile] were, in that order, 620 nM and 85 nM.
The like results for `Cc1c([C@H](Nc2cc(Cl)c3ncc(C#N)c(NCC(C)(C)C)c3c2)c2cn(C3(C(F)F)CC3)nn2)cccc1-n1cnnn1` [Example 1062, (S)-8-chloro-6-(((1-(1-(difluoromethyl)cyclopropyl)-1H-1,2,3-triazol-4-yl)(2-methyl-3-(1H-tetrazol-1 yl)phenyl)methyl)amino)-4-(neopentylamino)quinoline-3-carbonitrile] were, in that order, 70 nM and 3 nM.
